Test results as given in patent US20260001872A1, “BENZISOTHIAZOLE COMPOUND AND APPLICATION THEREOF, AND PHARMACEUTICAL COMPOSITION AND APPLICATION THEREOF” (Picomole Therapeutics (Liaoning) Co., Ltd., priority 2022, published 2026).
Values joined by “and” are separate entries in the source; they are usually repeats but may differ in a detail not shown here. Identical values can stand only once. Counter-ions that a name gives are not always drawn.

Key:
[1] = tested on: premature ejaculation model in Wistar rats after PCA induction; test: premature ejaculation model in Wistar rats after PCA induction; format: in vivo; details: for Actual ejaculation number / First contractive latency / First ejaculation latency / Seminal vesicle basal pressure (mmHg) / Seminal vesicle peak pressure (mmHg) / The number of seminal vesicle contractions: individual rats, within 30 min after PCA induction
Description: Male Wistar rats with body weight of about 300 g were subjected to a one-week acclimation period before the experiment began. On the day of the experiment, the animals were anesthetized with intraperitoneal (i.p.) injection of Zoletil 50 at 20 mg/kg combined with xylazine at 8 mg/kg, and then subjected to body temperature maintenance at 37° C. using a thermostatically controlled heating pad. The common carotid artery was exposed and cannulated with a PE50 catheter for real-time monitoring of arterial pressure (systolic blood pressure, diastolic blood pressure, and mean arterial pressure). The seminal vesicle and corpus cavernosum muscle of the animals were exposed. Seminal vesicle pressure and corpus cavernosum electromyographic (EMG) stabilized baseline were recorded for 10 min. In the dapoxetine group, the medications were administrated via tail vein intravenous (i.v.) injection; in the to-be-tested compound group, the to-be-tested compound was administrated orally (in the PE model group, the to-be-tested compound was substituted with vehicles); after 1 min, PCA (5 mg/kg) was intraperitoneally (i.p.) injected to induce the PE model; and recording of seminal vesicle pressure profiles and electromyographic (EMG) activity variations in the bulbocavernosus muscle continued to be performed for 30 min.
• A. The actual ejaculation number and the first ejaculation latency in animals within 30 min • B. The number of seminal vesicle contractions, the first contractive latency, basal pressure, and peak pressure within 30 min
The experimental data was represented by mean±S.E.M. and statistically analyzed by GraphPad Prism 7.0 software. One-way analysis of variance (One-way ANOVA) was used for comparison among multiple groups, and Dunnett't-test was used for statistical analysis in Post hoc test; and the comparison between two groups was statistically analyzed using Student's t-test. P<0.05 indicates a significant difference.

[2] = in vivo; cited from earlier work
[3] = 0.125 mg/kg p.o. + PCA 5 mg/kg i.p.
[4] = 0.5 mg/kg p.o. + PCA 5 mg/kg i.p.
[5] = 2 mg/kg p.o. + PCA 5 mg/kg i.p.
[6] = 2 mg/kg p.o. + PCA 5 mg/kg i.p., listed as A002
[7] = Dapoxetine 2 mg/kg i.v. + PCA 5 mg/kg i.p., hydrochloride
[8] = statistical analysis, PCA-induced model

c1ccc2nn(CCCCN3CCN(c4nsc5ccccc45)CC3)nc2c1 [A001]
Actual ejaculation number [1, 3]: 2 (2×) and 6 (2×) and 1 | First contractive latency [1, 3]: 1278 s and 824 s and 889 s and 1207 s and 1558 s | First ejaculation latency [1, 3]: 1456 s and 916 s and 985 s and 1380 s and 1667 s | Seminal vesicle basal pressure (mmHg) [1, 3]: 5.79 mmHg and 6.18 mmHg and 6.05 mmHg and 4.78 mmHg and 3.89 mmHg | Seminal vesicle peak pressure (mmHg) [1, 3]: 13.46 mmHg and 16.77 mmHg and 20.06 mmHg and 11.05 mmHg and 9.81 mmHg | The number of seminal vesicle contractions [1, 3]: 5 and 9 and 8 and 4 and 3 | Actual ejaculation number [1, 4]: 2 (3×) and 0 (2×) | First contractive latency [1, 4]: 1186 s and 1298 s and 1317 s and 1800 s (2×) | First ejaculation latency [1, 4]: 1256 s and 1382 s and 1477 s and 1800 s (2×) | Seminal vesicle basal pressure (mmHg) [1, 4]: 5.76 mmHg and 5.88 mmHg and 5.79 mmHg and 3.67 mmHg and 3.87 mmHg | Seminal vesicle peak pressure (mmHg) [1, 4]: 11.87 mmHg and 10.66 mmHg and 9.08 mmHg and 4.86 mmHg and 5.23 mmHg | The number of seminal vesicle contractions [1, 4]: 3 and 4 (2×) and 0 (2×) | Actual ejaculation number [1, 5]: 0 | First ejaculation latency [1, 5]: 1800 s | First contractive latency [1, 6]: 1568 s and 1800 s (4×) | Seminal vesicle basal pressure (mmHg) [1, 6]: 4.05 mmHg and 4.17 mmHg and 4.86 mmHg and 4.18 mmHg and 3.88 mmHg | Seminal vesicle peak pressure (mmHg) [1, 6]: 9.67 mmHg and 6.04 mmHg and 5.18 mmHg and 4.98 mmHg and 5.05 mmHg | The number of seminal vesicle contractions [1, 6]: 2 and 0 (4×)

CN(C)[C@@H](CCOc1cccc2ccccc12)c1ccccc1 [Dapoxetine, Dapoxetine hydrochloride, reference compound]
Actual ejaculation number [1, 7]: 1 (2×) and 0 (2×) and 2 | First contractive latency [1, 7]: 1448 s and 1705 s and 1800 s and 1749 s and 866 s | First ejaculation latency [1, 7]: 1558 s and 1800 s (2×) and 1256 s and 967 s | Seminal vesicle basal pressure (mmHg) [1, 7]: 5.16 mmHg and 4.97 mmHg and 5.37 mmHg and 5.88 mmHg and 4.96 mmHg | Seminal vesicle peak pressure (mmHg) [1, 7]: 6.89 mmHg and 8.1 mmHg and 6.46 mmHg and 6.78 mmHg and 7.03 mmHg | The number of seminal vesicle contractions [1, 7]: 1 (3×) and 0 and 3 | initial seminal vesicle contractive latency compared with the PE model group ([1]; P<0.01, P<0.001, FIG. 4): significant increase | contraction number of the corpus cavernosum muscle (conclusion) [1, 8]: decrease | ejaculation latency (conclusion) [1, 8]: effectively prolong | ejaculation number (conclusion) [1, 8]: significantly decrease | seminal vesicle pressure (conclusion) [1, 8]: reduce | bioavailability [2]: 42%
